Measured values as given in article PMC5522996, “Big conductance calcium‐activated potassium channel openers control spasticity without sedation” (British Journal of Pharmacology, 2017).

Experiments:
EDG8 = target: T1, EDG8 (Homo sapiens, UniProt Q9H228); test: Receptor binding profile of VSN16R; conditions: 10µM VSN16R
T1 construct: purchased Cerep; Chantest; DiscoveRx; Multispan; MDS Pharma Services

mice = test: Visible sedation, behaviour and tolerability in mice
WP2uvvA = test: Bacterial reverse mutation, revertants per plate; format: cell-based, Escherichia coli
Protocol: Strain of Organism Treatment Dose Revertants per plate
First Mutation without Metabolic Stimulation
Second Mutation without Metabolic Stimulation
VSN16R was incubated at various concentrations with either TA1535, TA1537, TA98 and TA100 strains of Salmonella typhimurium, which carry mutations in genes involved in histidine synthesis, and WP2uvvA Escherichia coli. The bacteria are spread on agar plates with limiting histidine content and incubated for 48 h. The number of histidine gene negative to positive revertants was assessed in two experiments. The results represent the mean ± SD. n=3/group. This was performed by Charles

rats = test: 28 day toxicology in rats (100, 300, 1000mg/kg p.o.); format: in vivo, rat
Protocol: Twenty‐eight day toxicology in rats and dogs for Investigational New Drug filing was performed by Charles Rivers (UK). Reproductive toxicology in rabbits was performed by Charles Rivers (Canada). Pharmacokinetic and/or toxicological doses ranged from 5 to 1000 mg·kg^−1 p.o. in Sprague Dawley male and female rats (n = 6‐26 per group), 50–200 mg·kg^−1 p.o. in male and female Beagle dogs (n = 6 per group) and 100–750 mg·kg^−1 p.o. in female New Zealand white rabbits (n = 9 per group). Results are expressed as mean ± SD.
Tissue Analysed Result of Tissue Analysis in Rats Result of Tissue Analysis in Dogs Artery, Aorta Negative Negative
Bone Marrow femur Negative Negative
Bone Marrow sternum Negative Negative
Bone, Sternum Negative Negative
Epididymus Negative Negative
Adrenal Gland Negative Negative
Mammary Grand Negative Negative
Parathyroid Gland Negative Negative
Pituitary Gland Negative Negative
Prostate Gland Negative Negative
Salivary Gland Negative Negative
Seminal Vesicle Gland Negative Negative
Gut associated lymphoid Negative Negative
Large Intestine caecum Negative Negative
Large Intestine colon Negative Negative
Large Intestine rectum Negative Negative
Mandibular Lymph Node Negative Negative
Mesenteric Lymph Node Negative Negative
Skeletal Muscle Negative Negative
Nasal Cavity Negative Negative
Sciatic Nerve Negative Negative
Oesophagus Negative Negative
Pancreas Negative Negative
Small Intestine, duodenum Negative Negative
Small Intestine, Ileum Negative Negative […]
Following 28 day toxicology of feeding either: rats treated with 100mg/kg, 300mg/kg, 1000mg/kg p.o. (n-20/group) or dogs treated with 50mg/kg, 100mg/kg or 200mg/kg p.o. (n=6/group). […] Studies were performed by Charles Rivers, Ltd. However, * There was hypertrophy of the liver that was evident at high doses VSN16R was associated with liver weight (mean ± SD) increases: 11.0 ± 1.2g placebo, 11.6 ± 1.3g (300mg/kg p.o.), 16.7 ± 2.1g (1000mg/kg p.o. P<0.001 assessed using Students t test. n= 10 female rats/group) associated with liver enzyme induction, supporting enhanced VSN16R clearance in pharmacokinetic studies. […]

CCR1 = target: T2, CCR1 (Homo sapiens, UniProt P32246); test: Receptor binding profile of VSN16R; conditions: 10µM VSN16R
T2 construct: purchased Cerep; Chantest; DiscoveRx; Multispan; MDS Pharma Services

BKCa channel = target: T3, BKCa channel (Homo sapiens, UniProt Q12791+Q86W47); test: Single‐channel inside‐out patch clamp, EA.hy926 cells; format: cell-based; conditions: 3 μM, inner surface of membrane, 40 mV, 0.3 μM free Ca^2+
T3 construct: host or cells: EA.hy926 endothelial cells
Protocol: The human EA.hy926 endothelial cells (ATCC, Manassas, USA) were grown in DMEM containing 10% FCS and 1% HAT (5 mM hypoxanthine, 20 μM aminopterin and 0.8 mM thymidine) and were maintained in an incubator at 37°C in 5% CO2 atmosphere (Bondarenko et al., 2013). Human HNC‐2 neuronal cells were obtained from ATCC. For experiments, cells were plated on glass coverslips. Single‐channel recordings were obtained from excised inside‐out membrane patches in symmetrical solutions using the patch‐clamp technique. All patch‐clamp experiments were performed at room temperature with the use of a water hydraulic micromanipulator (WR‐6, Narishige, Japan). […] The pipettes were filled with 140 mM KCl, 10 mM HEPES, 1 mM MgCl2, 5 mM EGTA and […] CaCl2 buffered to pH 7.2 by adding KOH. Cells were super‐perfused with a bath solution containing 140 mM NaCl, 5 mM KCl, 1.2 mM MgCl2, 10 mM HEPES, 10 mM glucose and 2.4 mM CaCl2. Following gigaseal formation, bath solution was switched to the following: 140 mM KCl, 10 mM HEPES, 1 mM MgCl2, 5 mM EGTA and a designated free Ca^2+ concentration, which was adjusted by adding different amounts of CaCl2 buffered to pH 7.2. (Bondarenko et al., 2011; Bondarenko et al., 2013). Single‐channel activity was expressed as NPo, where N represents the number of functional ion channels in the membrane patch and Po represents the open channel probability determined from idealized traces (Bondarenko et al., 2011). NPo was obtained from ≥20 s of continuous recording under each experimental condition. The effect of VSN16R was estimated after 3 min of continuous exposure to VSN16R‐containing solution. Data were analysed by ANOVA, and statistical significance was evaluated using Scheffés post hoc test of the Prism 5 software for Windows (GraphPad Software).

GPR6 = target: T4, GPR6 (Homo sapiens, UniProt P46095); test: Receptor binding profile of VSN16R; conditions: 10µM VSN16R
T4 construct: purchased Cerep; Chantest; DiscoveRx; Multispan; MDS Pharma Services

CXCR2 = target: T5, CXCR2 (Homo sapiens, UniProt P25025); test: Receptor binding profile of VSN16R; conditions: 10µM VSN16R
T5 construct: purchased Cerep; Chantest; DiscoveRx; Multispan; MDS Pharma Services

EDG4 = target: T6, EDG4 (Homo sapiens, UniProt Q9HBW0); test: Receptor binding profile of VSN16R; conditions: 10µM VSN16R
T6 construct: purchased Cerep; Chantest; DiscoveRx; Multispan; MDS Pharma Services

A2A = target: T7, A2A (Homo sapiens, UniProt P29274); test: Receptor binding profile of VSN16R; conditions: 10µM VSN16R
T7 construct: purchased Cerep; Chantest; DiscoveRx; Multispan; MDS Pharma Services

Water solubility = format: physicochemical
[1] = 1 g·kg^−1 p.o. daily for 5 days

T7 sequence (P29274 whole entry): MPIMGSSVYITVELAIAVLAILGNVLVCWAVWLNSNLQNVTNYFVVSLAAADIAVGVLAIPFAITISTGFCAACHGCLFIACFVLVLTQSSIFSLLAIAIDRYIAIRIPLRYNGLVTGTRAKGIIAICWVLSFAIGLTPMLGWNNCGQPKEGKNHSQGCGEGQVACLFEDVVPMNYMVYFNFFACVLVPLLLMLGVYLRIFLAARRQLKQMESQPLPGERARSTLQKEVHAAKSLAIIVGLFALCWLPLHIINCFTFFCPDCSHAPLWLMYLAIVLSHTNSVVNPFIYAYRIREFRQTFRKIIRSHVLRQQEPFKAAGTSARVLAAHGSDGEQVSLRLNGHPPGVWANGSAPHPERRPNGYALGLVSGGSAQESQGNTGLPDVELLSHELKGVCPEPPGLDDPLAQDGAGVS
T4 sequence (P46095 whole entry): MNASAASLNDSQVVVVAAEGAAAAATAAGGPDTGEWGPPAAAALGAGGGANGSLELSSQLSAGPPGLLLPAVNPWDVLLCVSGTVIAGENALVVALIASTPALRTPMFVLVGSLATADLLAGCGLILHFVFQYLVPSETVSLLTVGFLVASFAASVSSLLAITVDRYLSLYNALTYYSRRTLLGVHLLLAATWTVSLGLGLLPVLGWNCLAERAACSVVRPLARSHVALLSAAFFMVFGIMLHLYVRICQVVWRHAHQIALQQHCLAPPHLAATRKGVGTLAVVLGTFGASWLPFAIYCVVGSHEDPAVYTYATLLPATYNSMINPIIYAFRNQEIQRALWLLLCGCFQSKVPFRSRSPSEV
T6 sequence (Q9HBW0 whole entry): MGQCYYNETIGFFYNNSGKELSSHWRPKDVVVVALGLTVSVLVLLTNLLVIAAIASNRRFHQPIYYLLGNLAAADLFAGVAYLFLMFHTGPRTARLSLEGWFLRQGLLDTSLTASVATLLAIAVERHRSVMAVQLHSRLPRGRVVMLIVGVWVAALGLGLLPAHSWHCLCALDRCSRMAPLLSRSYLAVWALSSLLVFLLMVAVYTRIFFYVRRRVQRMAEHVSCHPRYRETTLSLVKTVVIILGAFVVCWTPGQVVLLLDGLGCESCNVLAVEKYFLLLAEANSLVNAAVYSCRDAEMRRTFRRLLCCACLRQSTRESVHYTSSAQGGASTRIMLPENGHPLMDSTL
T3 sequence (Q12791 whole entry): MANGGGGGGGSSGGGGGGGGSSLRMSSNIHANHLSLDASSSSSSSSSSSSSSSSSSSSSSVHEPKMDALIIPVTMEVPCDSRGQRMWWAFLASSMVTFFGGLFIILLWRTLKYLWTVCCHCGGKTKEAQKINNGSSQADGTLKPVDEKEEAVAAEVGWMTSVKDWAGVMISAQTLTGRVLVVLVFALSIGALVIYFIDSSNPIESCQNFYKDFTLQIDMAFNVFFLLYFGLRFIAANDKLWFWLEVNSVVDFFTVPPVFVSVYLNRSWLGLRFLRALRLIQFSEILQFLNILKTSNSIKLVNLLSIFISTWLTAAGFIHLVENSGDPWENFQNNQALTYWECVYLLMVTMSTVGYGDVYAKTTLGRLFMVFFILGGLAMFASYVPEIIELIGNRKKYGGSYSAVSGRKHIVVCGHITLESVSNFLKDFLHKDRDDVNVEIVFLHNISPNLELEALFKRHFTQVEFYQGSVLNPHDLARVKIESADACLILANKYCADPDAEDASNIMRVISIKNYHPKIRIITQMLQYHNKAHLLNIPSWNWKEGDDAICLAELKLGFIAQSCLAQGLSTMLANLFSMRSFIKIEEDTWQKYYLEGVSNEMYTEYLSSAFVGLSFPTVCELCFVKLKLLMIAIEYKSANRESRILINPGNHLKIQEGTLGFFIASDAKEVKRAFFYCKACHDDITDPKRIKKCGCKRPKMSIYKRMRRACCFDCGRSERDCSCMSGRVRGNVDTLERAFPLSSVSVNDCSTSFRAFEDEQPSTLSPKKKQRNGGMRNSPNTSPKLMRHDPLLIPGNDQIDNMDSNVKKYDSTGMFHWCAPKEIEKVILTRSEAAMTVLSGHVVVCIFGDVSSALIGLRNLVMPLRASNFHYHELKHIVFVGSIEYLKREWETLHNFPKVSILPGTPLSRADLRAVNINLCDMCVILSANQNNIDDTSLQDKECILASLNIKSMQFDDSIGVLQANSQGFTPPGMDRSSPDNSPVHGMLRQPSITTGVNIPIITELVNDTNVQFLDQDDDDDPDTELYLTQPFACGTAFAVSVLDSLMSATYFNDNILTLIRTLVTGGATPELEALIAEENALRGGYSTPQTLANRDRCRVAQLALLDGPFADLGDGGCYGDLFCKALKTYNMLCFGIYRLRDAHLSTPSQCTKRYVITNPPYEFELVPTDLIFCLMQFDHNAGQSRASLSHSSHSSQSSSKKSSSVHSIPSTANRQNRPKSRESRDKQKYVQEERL
T3 sequence (Q86W47 whole entry): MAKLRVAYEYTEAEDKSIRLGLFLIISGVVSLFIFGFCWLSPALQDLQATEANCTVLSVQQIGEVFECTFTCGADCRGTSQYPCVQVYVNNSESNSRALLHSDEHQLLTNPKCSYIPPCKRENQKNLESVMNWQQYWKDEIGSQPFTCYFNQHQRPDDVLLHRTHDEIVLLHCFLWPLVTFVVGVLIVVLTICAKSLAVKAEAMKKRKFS
T1 sequence (Q9H228 whole entry): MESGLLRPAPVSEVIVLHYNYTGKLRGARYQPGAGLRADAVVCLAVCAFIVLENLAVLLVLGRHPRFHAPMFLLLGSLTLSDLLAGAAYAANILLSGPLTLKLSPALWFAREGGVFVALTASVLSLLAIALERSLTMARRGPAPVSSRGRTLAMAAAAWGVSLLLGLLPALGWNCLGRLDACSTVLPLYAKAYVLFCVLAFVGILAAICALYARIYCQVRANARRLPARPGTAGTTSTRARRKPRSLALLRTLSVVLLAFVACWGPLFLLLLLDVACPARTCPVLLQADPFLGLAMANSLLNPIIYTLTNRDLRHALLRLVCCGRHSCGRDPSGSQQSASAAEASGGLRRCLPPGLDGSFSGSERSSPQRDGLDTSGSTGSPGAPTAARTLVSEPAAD
T2 sequence (P32246 whole entry): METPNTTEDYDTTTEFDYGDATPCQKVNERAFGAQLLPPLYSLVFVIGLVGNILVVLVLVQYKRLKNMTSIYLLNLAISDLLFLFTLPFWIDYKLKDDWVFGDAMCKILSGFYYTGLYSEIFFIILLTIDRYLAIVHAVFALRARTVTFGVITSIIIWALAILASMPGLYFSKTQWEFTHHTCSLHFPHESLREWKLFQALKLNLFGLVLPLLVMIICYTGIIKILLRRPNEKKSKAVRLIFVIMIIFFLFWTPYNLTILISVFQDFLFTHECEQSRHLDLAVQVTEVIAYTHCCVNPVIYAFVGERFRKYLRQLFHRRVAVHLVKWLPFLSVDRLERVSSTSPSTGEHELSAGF
T5 sequence (P25025 whole entry): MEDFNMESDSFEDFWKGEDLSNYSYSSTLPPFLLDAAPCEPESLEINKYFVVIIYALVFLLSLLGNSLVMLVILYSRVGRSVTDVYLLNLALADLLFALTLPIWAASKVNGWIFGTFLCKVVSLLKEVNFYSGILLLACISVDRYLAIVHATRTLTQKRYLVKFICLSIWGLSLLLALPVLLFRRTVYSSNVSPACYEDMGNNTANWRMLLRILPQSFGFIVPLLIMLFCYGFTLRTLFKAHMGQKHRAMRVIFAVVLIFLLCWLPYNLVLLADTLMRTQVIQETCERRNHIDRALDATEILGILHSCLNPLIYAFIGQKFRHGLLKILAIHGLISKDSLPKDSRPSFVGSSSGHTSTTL

C[C@H](CO)NC(=O)c1cccc(/C=C\CCCC(=O)N(C)C)c1 [VSN16R]
Activity (EDG8): Negligible Activity | Overt behavioural effects or toxicity (mice; [1]): failed to show any overt behavioural effects or toxicity | Weight loss (mice; [1]): no drug‐induced weight loss | Tolerated dose (mice; p.o., mice): 1000 mg/kg | Visible evidence of sedation (mice; up to 30 mg·kg^−1 i.v. in PBS): failed to show any visible evidence of sedation | Revertants per plate (WP2uvvA; First Mutation without Metabolic Stimulation, 17µg): 5.3 ± 0.6 | Revertants per plate (WP2uvvA; First Mutation without Metabolic Stimulation, 5000µg): 1.3 ± 1.2 | Revertants per plate (WP2uvvA; Second Mutation without Metabolic Stimulation, 17µg): 10.3 ± 6.7 | Revertants per plate (WP2uvvA; Second Mutation without Metabolic Stimulation, 5000µg): 8.0 ± 4.6 | Histological analysis of animal tissues (rats; both, Sprague Dawley (rat), rat, in vivo, 28 days): essentially no significant microscopic findings attributable to VSN16R | NOEL (rats; p.o., rats over 28 days): 1000 mg/kg | Clinical signs (rats; rat, in vivo): occasional salivation and ‘ploughing’ behaviours | Activity (CCR1): Negligible Activity | Single BKCa channel activity (BKCa channel): facilitated single BKCa channel activity | Activity (GPR6): Negligible Activity | Activity (CXCR2): Negligible Activity | Activity (EDG4): Negligible Activity | Activity (A2A): Negligible Activity | solubility (Water solubility): > 30 mg/mL
